Patent US10500170B2, “Composition and method for treating neurological disease” (Osmotica Kereskedelmi és Szolgáltató Korlátolt Felelõsségû …, priority 2018, dated 2019)

Experiments:
[1] = cited from earlier work
[2] = system: plasma proteins; settings: concentration range of 0.1 to 2.0 μg/mL; cited from earlier work
[3] = cited from earlier work; remark: listed apart in the source
[4] = Solubility of amantadine HCl in water; format: physicochemical; settings: 160 mg, 240 mg and 320 mg of amantadine HCl

Structure (SMILES): NC12CC3CC(CC(C3)C1)C2 [Amantadine, amantadine]
- volume of distribution ([1]; after intravenous administration): 3 to 8 L/kg
- reduction of renal clearance of amantadine ([1]; coadministration of quinine or quinidine): about 30%
- administered dose excreted unchanged in urine ([1]; in vivo): approximately 85%
- metabolism as share of the total clearance ([1]; in vivo): 5-15%
- bound to plasma proteins [2]: 67%
- elimination half-life change in renal insufficiency ([3]; creatinine clearance less than 40 mL/min/1.73 m^2): increases two to three fold or greater
- elimination half-life ([3]; patients on chronic maintenance hemodialysis): averages eight days
- Solubility in water [4]: soluble in 250 mL water
